Experimental data from PMC8400968, “Design, Synthesis, Biological Evaluation, and Computational Studies of Novel Tri-Aryl Imidazole-Benzene Sulfonamide Hybrids as Promising Selective Carbonic Anhydrase IX and XII Inhibitors” (Molecules, 2021).
“And” between values parts separate entries of the source, which are not always exact repeats. Equal entries are not always repeated. Where two headings read alike, the source gives them in different places.

Key:
hCA I = target: T1, hCA I (Homo sapiens, UniProt P00915); assay: stopped-flow CO2 hydrase assay, hCA I; format: biochemical
T1 construct: made in house
Procedure: (§1) Newly synthesized hybrids 5a–n were tested for their inhibitory activity against four physiologically and pharmacologically CA isoforms, namely cytosolic hCA I and II, and tumor-associated isoforms hCA IX and XII, using a CO2 hydrase stop-flow assay. Acetazolamide (AAZ), clinically used sulphonamide, was used as the standard drug. […] The ability of imidazoles 5a–n toward inhibition of hCA I, II (cytosolic) as well as hCA IX and XII (transmembrane, tumor-associated isoforms) using stopped-flow CO2 hydrase assay was evaluated. See Appendix A.
(§2) The enzymes are recombinant proteins prepared in our lab. […] The uncatalyzed rates were determined in the same manner and subtracted from the total observed rates. Stock solutions of inhibitor (0.1 mM) were prepared in distilled-deionized water and dilutions up to 0.01 nM were done thereafter with the assay buffer. Inhibitor and enzyme solutions were preincubated together for 15 min at room temperature prior to assay, in order to allow for the formation of the E-I complex. The inhibition constants were obtained by non-linear least-squares methods using PRISM 3 and the Cheng-Prusoff equation, and represent the mean from at least three different determinations.

hCA II = target: T2, hCA II (Homo sapiens, UniProt P00918); assay: stopped-flow CO2 hydrase assay, hCA II; format: biochemical
T2 construct: made in house
Procedure: as §1, §2

hCA IX = target: T3, hCA IX (Homo sapiens, UniProt Q16790); assay: stopped-flow CO2 hydrase assay, hCA IX; format: biochemical; details: for IC50: quoted in docking discussion, read-out: IC50 CA-IX (in vitro inhibitory activity quoted in docking study); for Selectivity Ratio hCA XII/ hCA IX: selectivity for hCA IX over hCA XII; for Ki: stopped-flow CO2 hydrase assay
T3 construct: made in house
Procedure: as §1, §2

hCA XII = target: T4, hCA XII (Homo sapiens, UniProt O43570); assay: stopped-flow CO2 hydrase assay, hCA XII; format: biochemical
T4 construct: made in house
Procedure: Newly synthesized hybrids 5a–n were tested for their inhibitory activity against four physiologically and pharmacologically CA isoforms, namely cytosolic hCA I and II, and tumor-associated isoforms hCA IX and XII, using a CO2 hydrase stop-flow assay. Acetazolamide (AAZ), clinically used sulphonamide, was used as the standard drug. […]. The ortho substitution in the aryl moiety appears to correlate with higher inhibitory effects against both hCA IX and XII. […] […]. The ability of imidazoles 5a–n toward inhibition of hCA I, II (cytosolic) as well as hCA IX and XII (transmembrane, tumor-associated isoforms) using stopped-flow CO2 hydrase assay was evaluated. See Appendix A.
The carbonic anhydrase catalyzed CO2 hydration actions for all new compounds herein reported have were assayed utilizing an instrument of Applied Photophysics stopped-flow. The enzymes are recombinant proteins prepared in our lab. […]. The uncatalyzed rates were determined in the same manner and subtracted from the total observed rates. Stock solutions of inhibitor (0.1 mM) were prepared in distilled-deionized water and dilutions up to 0.01 nM were done thereafter with the assay buffer. Inhibitor and enzyme solutions were preincubated together for 15 min at room temperature prior to assay, in order to allow for the formation of the E-I complex. The inhibition constants were obtained by non-linear least-squares methods using PRISM 3 and the Cheng-Prusoff equation, and represent the mean from at least three different determinations.

[1] = Cell viability assay (MTT); format: cell-based; details: human, MCF-10A mammary gland epithelial cells, MCF-10A cells, incubated 4 days
Procedure: Cell viability assay was carried out using human mammary gland epithelial cell line (MCF-10A). MCF-10A cells were incubated with compounds 5b, 5d, 5e, 5g, 5j and 5n for 4 days and MTT assay was used to determine the viability of cells. See Appendix A.
MTT assay was carried out to study the effect of compounds on mammary epithelial cells (MCF-10A). The medium in which cells were propagated contained Dulbecco’s modified Eagle’s medium (DMEM)/Ham’s F-12 medium (1:1) supplemented with epidermal growth factor (20 ng/mL), hydrocortisone (500 ng/mL), insulin (10 μg/mL), 2 mM glutamine and 10% fetal calf serum. After every 2–3 days, the cells were passaged using trypsin ethylenediamine tetra acetic acid (EDTA). The cells were seeded at a density of 10^4 cells mL^−1 in flat-bottomed culture plates containing 96 wells each. After 24 h, medium was removed from the plates and the compounds in (in 0.1% DMSO) were added (in 200 μL medium to yield a final concentration of 0.1% v/v) to the wells of plates. A single compound was designated with four wells followed by incubation of plates for 96 h at 37 °C. After incubation, medium was removed completely from the plates followed by addition of MTT (0.4 mg/mL in medium) to each well and subsequent incubation of plates for 3 h. MTT (along with the medium) was removed and DMSO (150 μL) was added to each well of the culture plates, followed by vortexing and subsequent measurement of absorbance (at 540 nm) using microplate reader. The data are shown as percentage inhibition of proliferation in comparison with controls containing 0.1% DMSO.

[2] = system: epithelial cancer cell line (A-549); assay: Antiproliferative activity, MTT assay, A-549; format: cell-based; details: Homo sapiens, A549; A-549, MTT; read-out: Antiproliferative Activity IC50 ± SEM A-549
Procedure: (§3) The antiproliferative activity of 5b, 5d, 5e, 5g, 5j and 5n against four human cancer cell lines including pancreatic cancer cell line (Panc-1), breast cancer cell line (MCF-7), colon cancer cell line (HT-29) and epithelial cancer cell line (A-549) using MTT assay and doxorubicin was applied as the reference compound [22, 23]. Graph Pad Prism software (Graph Pad Software, San Diego, CA, USA) was used to calculate the median inhibition concentration (IC50) and results are recorded in Table 2.
(§4) The antiproliferative activity of 5b, 5d, 5e, 5g, 5j and 5n against four human cancer cell lines including pancreatic cancer cell line (Panc-1), breast cancer cell line (MCF-7), colon cancer cell line (HT-29) and epithelial cancer cell line (A-549) using MTT assay and doxorubicin was applied as the reference compound [22, 23]. See Appendix A.
(§5) To explore the antiproliferative potential of compounds MTT assay was performed according to previously reported procedure using different cell lines To explore the antiproliferative potential of compounds propidium iodide fluorescence assay was performed using different cell lines. To calculate the total nuclear DNA, a fluorescent dye (propidium iodide, PI) is used which can attach to the DNA, thus offering a quick and precise technique. PI cannot pass through the cell membrane and its signal intensity can be considered as directly proportional to quantity of cellular DNA. Cells whose cell membranes are damaged or have changed permeability are counted as dead ones. The assay was performed by seeding the cells of different cell lines at a density of 3000–7500 cells/well (in 200 µL medium) in culture plates followed by incubation for 24 h at 37 °C in humidified 5% CO2/95% air atmospheric conditions. The medium was removed; the compounds were added to the plates at 10 µM concentrations (in 0.1% DMSO) in triplicates, followed by incubation for 48 h. DMSO (0.1%) was used as control. After incubation, medium was removed followed by the addition of PI (25 µL, 50µg/mL in water/medium) to each well of the plates. At −80 °C, the plates were allowed to freeze for 24 h, followed by thawing at 25 °C. A fluorometer (Polar-Star BMG Tech, Offenburg, Germany) was used to record the readings at excitation and emission wavelengths of 530 and 620 nm for each well. The percentage cytotoxicity of compounds was calculated using the following formula: %Cytotoxicity=(Ac−Atc)/Ac×100 where Atc = Absorbance of treated cells and Ac = Absorbance of control. Erlotinib was used as positive control in the assay.

[3] = system: breast cancer cell line (MCF-7); assay: Antiproliferative activity, MTT assay, MCF-7; format: cell-based; details: Homo sapiens, MCF7; MCF-7, MTT; read-out: Antiproliferative Activity IC50 ± SEM MCF-7
Procedure: as §3, §4, §5

[4] = system: pancreatic cancer cell line (Panc-1); assay: Antiproliferative activity, MTT assay, Panc-1; format: cell-based; details: Homo sapiens; Panc-1, MTT; read-out: Antiproliferative Activity IC50 ± SEM Panc-1
Procedure: as §3, §4, §5

[5] = system: colon cancer cell line (HT-29); assay: Antiproliferative activity, MTT assay, HT-29; format: cell-based; details: Homo sapiens; HT-29, MTT; read-out: Antiproliferative Activity IC50 ± SEM HT-29
Procedure: as §3, §4, §5

[6] = system: four human cancer cell lines (Panc-1, MCF-7, HT-29, A-549); assay: Antiproliferative activity, MTT assay, average of the four cell lines; format: cell-based; details: for IC50: average of A-549, MCF-7, Panc-1, HT-29
Procedure: as §3, §4, §5

T1 sequence (P00915 whole entry): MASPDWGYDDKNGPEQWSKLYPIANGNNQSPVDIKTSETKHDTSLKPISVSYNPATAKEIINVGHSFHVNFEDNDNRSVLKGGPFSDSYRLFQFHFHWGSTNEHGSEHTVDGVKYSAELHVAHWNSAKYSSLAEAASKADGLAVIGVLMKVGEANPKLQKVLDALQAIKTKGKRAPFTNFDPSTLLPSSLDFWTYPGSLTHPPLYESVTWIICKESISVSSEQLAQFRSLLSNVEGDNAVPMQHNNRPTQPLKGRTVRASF
T4 sequence (O43570 25-354): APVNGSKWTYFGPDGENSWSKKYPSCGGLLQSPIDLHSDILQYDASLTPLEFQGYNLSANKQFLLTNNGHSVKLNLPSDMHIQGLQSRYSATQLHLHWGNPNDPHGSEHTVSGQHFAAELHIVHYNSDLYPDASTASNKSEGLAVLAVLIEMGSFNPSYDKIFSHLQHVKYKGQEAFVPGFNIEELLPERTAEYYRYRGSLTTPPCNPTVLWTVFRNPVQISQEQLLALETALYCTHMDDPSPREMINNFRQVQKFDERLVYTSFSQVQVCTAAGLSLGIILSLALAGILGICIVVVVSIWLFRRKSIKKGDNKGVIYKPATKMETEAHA

Row | SMILES | Ki (hCA I) | Ki (hCA II) | IC50 (hCA IX) | Selectivity Ratio hCA XII/ hCA IX (hCA IX) | Ki (hCA IX) | Ki (hCA XII) | IC50 [2] | IC50 [3] | IC50 [4] | IC50 [5] | IC50 [6] | GI50 ([6]; mean of four cell lines, read-out: mean GI50 against the four cell lines) | melting point | Ki (hCA I; stopped-flow CO2 hydrase assay, read-out: Ki hCA I) | GI50 ([6]; four cancer cell lines, read-out: GI50) | viability at 96 h [1]
1 | COc1ccccc1-c1nc(-c2ccccc2)c(-c2ccccc2)n1-c1ccc(S(N)(=O)=O)cc1 [Compound 5g, 4-(2-(2-Methoxyphenyl)-4,5-diphenyl-1H-imidazol-1-yl)benzene sulfonamide] |  | > 100 µM | 0.32 µM | 12.00 | 0.32 µM and 0.3 µM | 3.7 µM | 2.4 ± 0.5 µM | 2.1 ± 0.2 µM | 2.2 ± 0.4 µM | 2.4 ± 0.4 µM | 2.3 µM |  |  | > 100 µM | 2.3 µM | 90%
2 | NS(=O)(=O)c1ccc(-n2c(-c3ccccc3O)nc(-c3ccccc3)c2-c2ccccc2)cc1 [Compound 5e, 4-(2-(2-Hydroxyphenyl)-4,5-diphenyl-1H-imidazol-1-yl)benzene sulfonamide] | > 100 µM | > 100 µM |  | 6.50 | 0.84 µM and 0.8 µM | 5.2 µM | 4.4 ± 0.7 µM | 3.6 ± 0.8 µM | 3.7 ± 0.5 µM | 3.9 ± 0.6 µM | 3.9 µM |  |  |  |  | 86%

The next lines start with results.

Row | Ki (hCA I) | Ki (hCA II) | IC50 (hCA IX) | Selectivity Ratio hCA XII/ hCA IX (hCA IX) | Ki (hCA IX) | Ki (hCA XII) | IC50 [2] | IC50 [3] | IC50 [4] | IC50 [5] | IC50 [6] | GI50 ([6]; mean of four cell lines, read-out: mean GI50 against the four cell lines) | melting point | Ki (hCA I; stopped-flow CO2 hydrase assay, read-out: Ki hCA I) | GI50 ([6]; four cancer cell lines, read-out: GI50) | SMILES | viability at 96 h [1]
3 | > 100 µM | > 100 µM | 0.72 µM | 7.00 | 0.72 µM and 0.7 µM | 4.9 µM | 3.1 ± 0.6 µM | 3.9 ± 0.4 µM | 3.8 ± 0.3 µM | 3.1 ± 0.4 µM | 3.5 µM | 3.5 µM | 214 to 216 °C |  |  | NS(=O)(=O)c1ccc(-n2c(-c3c(Cl)cccc3Cl)nc(-c3ccccc3)c2-c2ccccc2)cc1 [Compound 5d, 4-(2-(2,6-Dichlorophenyl)-4,5-diphenyl-1H-imidazol-1-yl)benzene sulfonamide] | 87%
4 | > 100 µM | > 100 µM |  | 5.00 | 1.3 µM | 6.4 µM | 4.7 ± 0.6 µM | 4.6 ± 0.6 µM | 4.8 ± 0.3 µM | 4.8 ± 0.2 µM | 4.7 µM |  | 290 to 292 °C |  |  | NS(=O)(=O)c1ccc(-n2c(-c3cccs3)nc(-c3ccccc3)c2-c2ccccc2)cc1 [Compound 5n, 4-(4,5-Diphenyl-2-(thiophen-2-yl)-1H-imidazol-1-yl)benzene sulfonamide] | 90%
5 | > 100 µM | > 100 µM |  | 5.60 | 1.1 µM | 6.2 µM | 4.6 ± 0.6 µM | 3.6 ± 0.2 µM | 4.6 ± 0.9 µM | 4.8 ± 0.4 µM | 4.4 µM |  | 280 to 282 °C |  |  | NS(=O)(=O)c1ccc(-n2c(-c3ccccc3[N+](=O)[O-])nc(-c3ccccc3)c2-c2ccccc2)cc1 [Compound 5j, 4-(2-(2-Nitrophenyl)-4,5-diphenyl-1H-imidazol-1-yl)benzene sulfonamide] | 88%
